Laboratory results from PMC9054546, “Synthesis and molecular modeling studies of cholinesterase inhibitor dispiro[indoline-3,2′-pyrrolidine-3′,3′′-pyrrolidines]” (RSC Advances, 2020).
Values joined by “and” are separate entries in the source; they are usually repeats but may differ in a detail not shown here. Identical values can stand only once. Like-named read-outs stand apart in the source and are kept apart here.

Key:
[1] = biological target: T1, BChE (Homo sapiens, UniProt P06276); assay: 2D-QSAR (BMLR, CODESSA-Pro) model, BChE inhibitors; settings: observed minus estimated IC50
Excerpt: (§1) The cholinesterase properties observed were undertaken by CODESSA-Pro software accessible for optimizing 2D-QSAR models.[39–41] This is useful for well understanding the bio-observations and identifying the parameters necessary for bio-potency. Three descriptor QSAR models were developed due to the AChE and BChE inhibitory properties of the synthesized dispiro-compounds 8a–l (ESI Tables S4–S9, Fig. S40 and S41, details of the QSAR descriptors are also mentioned in the ESI). ^† […]
(§2) Goodness of the QSAR models was supported by the comparative values of the correlation coefficient (R^2) with their cross validation of leave one-out (R^2cvOO) and leave many-out (R^2cvMO) [R^2 = 0.923, 0.979; R^2cvOO = 0.882, 0.936; R^2cvMO = 0.904, 0.956, for AChE and BChE models, respectively]. Standard deviation (s^2) and Fisher criteria (F) values of the models also support their goodness (s^2 = 0.026, 0.005; […]. Additionally, the correlations of the observed and predicted values “specially the high potent synthesized compounds” add good support for the attained models. […]
(§3) Molecular modeling studies
(§4) The synthesized dispiro[indoline-3,2'-pyrrolidine-3',3''-pyrrolidines] 8a‒l […]
(§5) 2D-QSAR modeling by CODESSA-Pro (comprehensive descriptors for structural and statistical analysis) software. Geometry of the compounds was initially optimized by AM1 technique using hyperChem 8.0 then, uploaded to CODESSA-Pro for final geometrical structure optimization by MOPAC.10‒12 CODESSA-Pro calculated 656 molecular descriptors (constitutional, topological, geometrical, charge-related, semi-empirical, thermodynamical, molecular-type, atomic-type and bond-type descriptors) for […]
(§6) the exported bio-active agents. Mathematical transformation of the experimental values […]
(§7) QSAR model. The best multi-linear regression (BMLR) technique was utilized which is a stepwise search for the best n-parameter regression equations (where n stands for the number of descriptors used), based on the highest R2 (squared correlation coefficient), R2cvOO (squared cross-validation “leave one-out, LOO” coefficient), R2cvMO (squared cross-validation “leave many-out up to 20% of the training set, LMO” coefficient), F (Fisher statistical significance criteria) values, and s2 (standard deviation). The QSAR up to 3-descriptor model describing the biological activity of the bio-active agents were generated (obeying the thumb rule of 4:1 which is the ratio between the data points and the number of QSAR descriptor).
(§8) Minimum (>0.1) bond order for atom C is an atomic type descriptor with the […]
(§9) why the higher descriptor value, the lower AChE inhibitory efficacy of the tested agent as […]
(§10) 2/SQRT(TMSA) (MOPAC PC) is a charge related descriptor with relatively high […]
(§11) . Compounds with high descriptor value predicted low AChE
(§12) 0.11715). HDCA2 (area weighed surface charge of hydrogen bonding donor atoms) can be calculated by equ. (1). 13
(§13) HDCA2 = D … .DtotH‒donor (1)
(§14) Where, standsSD for the solvent accessible surface area of H-bonding donor H atoms (selected by threshold charge), is the partialqD charge on H-bonding donor H atoms (selected by threshold charge) and is the totalStot solvent accessible molecular surface […]
(§15) Square root of surface area for atom C is also a charge related descriptor with […]
(§16) . For this reason, the higher descriptor value of […]
partial positively and negatively charged surface area can be calculated by equs. (2) and […]
PPSA3 = A … .. (2)A∈{δA>0}
PNSA3 = A … ..A∈{δA>0} (3)
Where, is the positively/negativelySA charged solvent accessible atomic surface area and qA is the atomic partial charge.
ZX Shadow/ZX rectangle is a geometrical descriptor with the highest coefficient […]
. The higher descriptor value of […]
compounds 8c and 8e, respectively). Relative shadow areas of a molecule can be determined by equ. (4). 13
Where, C is contour of the projection of the molecule on the plane defined by two principal axes of the molecule (k = XY, XZ or YZ plane), , , = X • ν –x or yρ –y or zS(k) […]
Maximum atomic state energy for atom O is an atomic type descriptor. […]

[2] = biological target: T2, AChE (Homo sapiens, UniProt P22303); assay: biochemical; settings: for SI(AChE/BChE): selectivity index = IC50 (AChE)/IC50 (BChE)
Procedure: (§17) Butyrylthiocholine iodide and acetylthiocholine were utilized as substrates in BChE and AChE assays, respectively, where DTNB was served as indicator. All compounds were dissolved in MeOH. […] Blank assays were performed by replacing the enzyme (20 μL) with buffer and their absorbances were recorded for correction of the spontaneous lysis of the indicator or inherent color of the inhibitor.
Selectivity index (SI) for acetyl and butyryl cholinesterases was calculated as follow:SI(AChE/BChE) = IC50 (AChE)/IC50 (BChE)SI(BChE/AChE) = […]

[3] = biological target: T1, BChE; assay: biochemical; settings: for SI(BChE/AChE): selectivity index BChE/AChE
Procedure: as §17, with “inhibitor. […]” for “inhibitor.”

[4] = test system: RPE1 (human immortalized retinal pigment epithelial cell line); assay: Antiproliferative/cytotoxicity MTT assay on normal cell line; assay type: cell-based; settings: RPE-1, 72 h incubation, tested at 100, 50, 25 and 12.5 μM, read-out: IC50 against RPE1
Excerpt: Antiproliferative properties of the synthesized agents 8a–l were considered against RPE1 (human immortalized retinal pigment epithelial cell line) normal cell line utilizing the standard MTT (tetrazolium salt) technique.[37]
The synthesized agents 8a–l were screened against RPE1 (human immortalized retinal pigment epithelial cell line) normal cell line to investigate their cytotoxicity by the standard mitochondrial dependent reduction of yellow MTT [3-(4,5-dimethylthiazol-2-yl)-2,5-diphenyl-tetrazolium bromide] to purple formazan technique.[37] Cells were suspended in DMEM in addition to 1% antibiotic–antimycotic mixture (10 000 μg mL^−1 potassium penicillin, 10 000 μg mL^−1 streptomycin sulfate and 25 μg mL^−1 amphotericin B), 10% fetal bovine serum and 1% L-glutamine at 37 °C, under 5% CO2 and 95% humidity. Cells were seeded at concentration of 30 000 cells per well in fresh complete growth medium in 96-well tissue culture microtiter plates for 24 h. […] 0.5% DMSO was used as negative control. Triplicate wells were prepared for each individual dose. After 72 h of incubation, medium was aspirated, 40 μl MTT salt (2.5 mg mL^−1) were added to each well and incubated for further 4 h at 37 °C. To stop the reaction and dissolve the formed crystals, 150 μL of 10% sodium dodecyl sulfate (SDS) in deionized water were added to each well and incubated overnight at 37 °C.
Data were collected as mean values for experiments performed in triplicates for each individual dose which had been measured by MTT assay. […] The percentage of cell survival was calculated according to the following equation. [drawing 1]
Statistical calculations for determination of the mean and standard error values were determined by SPSS 16 software.

[5] = biological target: T2, AChE; assay: 2D-QSAR (BMLR, CODESSA-Pro) model, AChE inhibitors; settings: observed minus estimated IC50
Excerpt: as §1, §2, §3, §4, §5, §6, §7, §8, §9, §10, §11, §12, §13, §14, §15, §16

[6] = 10 min incubation at 25 °C, read at 405 nm, read-out: IC50 of AChE (μM) ± SD
[7] = log transformation of the observed IC50, read-out: Observed log(IC50, μM), AChE (converted)
[8] = 10 min incubation at 25 °C, read at 405 nm, read-out: IC50 of BChE (μM) ± SD
[9] = log transformation of the observed IC50, read-out: Observed log(IC50, μM), BChE (converted)

T2 sequence (P22303 32-614): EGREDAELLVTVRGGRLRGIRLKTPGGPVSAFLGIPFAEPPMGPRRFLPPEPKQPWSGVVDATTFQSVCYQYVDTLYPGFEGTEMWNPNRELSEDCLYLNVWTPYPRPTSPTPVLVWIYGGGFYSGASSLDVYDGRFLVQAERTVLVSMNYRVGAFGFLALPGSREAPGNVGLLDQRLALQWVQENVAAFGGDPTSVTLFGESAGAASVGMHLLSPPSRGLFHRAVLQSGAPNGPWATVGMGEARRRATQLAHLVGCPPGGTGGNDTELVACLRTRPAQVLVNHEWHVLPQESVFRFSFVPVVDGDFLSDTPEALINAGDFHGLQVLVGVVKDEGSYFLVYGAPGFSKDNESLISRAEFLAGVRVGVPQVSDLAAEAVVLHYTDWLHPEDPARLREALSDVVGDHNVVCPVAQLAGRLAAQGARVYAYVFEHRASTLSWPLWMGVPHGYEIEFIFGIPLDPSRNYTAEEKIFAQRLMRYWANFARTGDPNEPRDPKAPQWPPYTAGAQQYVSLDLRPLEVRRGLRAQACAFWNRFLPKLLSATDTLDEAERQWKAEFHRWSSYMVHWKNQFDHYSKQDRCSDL
T1 sequence (P06276 29-602): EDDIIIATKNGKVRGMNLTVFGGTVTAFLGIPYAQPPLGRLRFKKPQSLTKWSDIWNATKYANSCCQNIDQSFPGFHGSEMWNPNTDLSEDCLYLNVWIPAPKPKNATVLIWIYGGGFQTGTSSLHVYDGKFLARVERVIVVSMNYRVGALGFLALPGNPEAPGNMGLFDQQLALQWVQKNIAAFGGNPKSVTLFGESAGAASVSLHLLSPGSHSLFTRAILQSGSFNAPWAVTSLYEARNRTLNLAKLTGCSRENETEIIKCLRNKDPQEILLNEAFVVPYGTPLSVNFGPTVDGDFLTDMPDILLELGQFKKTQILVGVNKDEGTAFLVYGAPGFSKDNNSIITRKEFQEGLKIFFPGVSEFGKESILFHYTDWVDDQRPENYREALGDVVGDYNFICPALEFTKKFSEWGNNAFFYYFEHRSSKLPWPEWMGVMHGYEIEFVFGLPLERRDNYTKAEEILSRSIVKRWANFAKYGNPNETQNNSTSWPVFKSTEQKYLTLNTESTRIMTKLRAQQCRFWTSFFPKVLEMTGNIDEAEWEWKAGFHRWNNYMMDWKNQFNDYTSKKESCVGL

Row | SMILES | Error (difference between observed and estimated property values), BChE BMLR-QSAR model [1] [µM] | IC50 [2, 6] [µM] | IC50 [2, 7] [µM] | SI(AChE/BChE) [2] | IC50 [3, 8] | IC50 [3, 9] [µM] | SI(BChE/AChE) [3] | IC50 [4] [µM] | Error (difference between observed and estimated property values), AChE BMLR-QSAR model [5] [µM]
1 | CN1CC(c2ccccc2)C2(CC(=O)N(c3ccccc3)C2=O)C12C(=O)Nc1ccccc12 (stereo not drawn) [Compound 8a, 1′-Methyl-1′′,4′-diphenyldispiro[indoline-3,2′-pyrrolidine-3′,3′′-pyrrolidine]-2,2′′,5′′-trione] | 12.80 | 117 | 117 | 1.43 | 81.8 µM | 81.8 | 0.70 | > 100 | -13.41
2 | CN1CC(c2ccccc2)C2(CC(=O)N(c3ccccc3)C2=O)C12C(=O)Nc1ccc(Cl)cc12 (stereo not drawn) [Compound 8b, 5-Chloro-1′-methyl-1′′,4′-diphenyldispiro[indoline-3,2′-pyrrolidine-3′,3′′-pyrrolidine]-2,2′′,5′′-trione] | -6.64 | 13.6 ± 0.62 | 13.6 | 0.32 | 42.5 µM and 42.4 µM | 42.5 | 3.12 | > 100 | 0.13
3 | COc1ccc2c(c1)C1(C(=O)N2)N(C)CC(c2ccccc2)C12CC(=O)N(c1ccccc1)C2=O (stereo not drawn) [Compound 8c, 5-Methoxy-1′-methyl-1′′,4′-diphenyldispiro[indoline-3,2′-pyrrolidine-3′,3′′-pyrrolidine]-2,2′′,5′′-trione] | 7.44 | 103 | 103 | 1.43 | 71.7 µM | 71.7 | 0.70 | > 100 | 18.50
4 | CN1CC(c2ccc(Cl)cc2)C2(CC(=O)N(c3ccccc3)C2=O)C12C(=O)Nc1ccc(Cl)cc12 (stereo not drawn) [Compound 8d, 5-Chloro-4′-(4-chlorophenyl)-1′-methyl-1′′-phenyldispiro[indoline-3,2′-pyrrolidine-3′,3′′-pyrrolidine]-2,2′′,5′′-trione] | -5.91 | 24.3 ± 4.08 | 24.3 | 1.14 | 21.3 µM | 21.3 | 0.88 | > 100 | 13.92
5 | COc1ccc(C2CN(C)C3(C(=O)Nc4ccc(Cl)cc43)C23CC(=O)N(c2ccccc2)C3=O)cc1 (stereo not drawn) [Compound 8f, 5-Chloro-4′-(4-methoxyphenyl)-1′-methyl-1′′-phenyldispiro[indoline-3,2′-pyrrolidine-3′,3′′-pyrrolidine]-2,2′′,5′′-trione] | 1.88 | 12.3 | 12.3 | 0.61 | 20.1 ± 0.16 µM | 20.1 | 1.64 | > 100 | 1.32
6 | CN1CC(c2ccccc2)C2(CC(=O)N(c3ccc(Cl)cc3)C2=O)C12C(=O)Nc1ccc(Cl)cc12 (stereo not drawn) [Compound 8i, 5-Chloro-1′′-(4-chlorophenyl)-1′-methyl-4′-phenyldispiro[indoline-3,2′-pyrrolidine-3′,3′′-pyrrolidine]-2,2′′,5′′-trione] | -3.48 | 39.4 | 39.4 | 1.12 | 35.1 µM | 35.1 | 0.89 | > 100 | -3.69
7 | CN1CC(c2ccc(Cl)cc2)C2(CC(=O)N(c3ccc(Cl)cc3)C2=O)C12C(=O)Nc1ccccc12 (stereo not drawn) [Compound 8j, 1′′,4′-Bis(4-chlorophenyl)-1′-methyldispiro[indoline-3,2′-pyrrolidine-3′,3′′-pyrrolidine]-2,2′′,5′′-trione] | 1.51 | 21 | 21 | 1.54 | 13.6 µM | 13.6 | 0.65 | > 100 | -0.80
8 | CN1CC(c2ccc(Cl)cc2)C2(CC(=O)N(c3ccc(Cl)cc3)C2=O)C12C(=O)Nc1ccc(Cl)cc12 (stereo not drawn) [Compound 8k, 5-Chloro-1′′,4′-bis(4-chlorophenyl)-1′-methyldispiro[indoline-3,2′-pyrrolidine-3′,3′′-pyrrolidine]-2,2′′,5′′-trione] | 1.09 | 13.9 | 13.9 | 1.36 | 10.2 ± 0.76 µM | 10.2 | 0.73 | > 100 | -0.82
